Laboratory results taken from paper PMC6934184, “Selective DNA-PKcs inhibition extends the therapeutic index of localized radiotherapy and chemotherapy” (The Journal of Clinical Investigation, 2019).

Target: T1, GSK3B (GSK3 beta) (Homo sapiens, UniProt P49841)
T1 construct: purchased Thermo Fisher Scientific (Life Technologies) SelectScreen
Test: SelectScreen Z'LYTE
Format: biochemical
Outline: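 Compound tested in SelectScreen activity assays, Z'LYTE for CSF1R, CDK1/cyclin B and MAP2K6 and Adapta for CAMK1. ATP for CAMK1 was listed as 10, and Km app was used for CSF1R. Results are expressed in percent.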

T1 sequence (P49841 whole entry): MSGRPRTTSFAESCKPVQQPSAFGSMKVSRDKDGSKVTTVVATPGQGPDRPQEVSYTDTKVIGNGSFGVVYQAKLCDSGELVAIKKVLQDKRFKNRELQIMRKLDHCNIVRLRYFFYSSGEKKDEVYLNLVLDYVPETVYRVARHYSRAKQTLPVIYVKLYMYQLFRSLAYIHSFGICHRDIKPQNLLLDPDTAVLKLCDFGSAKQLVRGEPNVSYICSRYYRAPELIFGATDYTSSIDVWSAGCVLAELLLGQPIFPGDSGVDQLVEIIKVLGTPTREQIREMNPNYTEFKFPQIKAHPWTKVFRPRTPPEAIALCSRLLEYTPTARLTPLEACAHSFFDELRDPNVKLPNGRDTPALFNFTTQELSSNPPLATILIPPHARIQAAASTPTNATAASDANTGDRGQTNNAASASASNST

## CN(C(=O)CN1CCOCC1)c1ccc2sc3c(-c4cccc5c(=O)cc(N6CC7CCC(C6)O7)oc45)cccc3c2c1 [NU5455]
  inhibition at 1 µM: -2.5%
